In patent US12421240B2, “Hydropyrazino[1,2-d][1,4]diazepine compounds for the treatment of autoimmune disease” (Hoffmann-La Roche Inc., priority 2019, dated 2025) one finds IC20 and IC50 data, which are given here for 3 molecules.

This data set has as its target T1, hERG channel (Homo sapiens, UniProt Q12809).
T1 construct: expressed in transfected cells
As to the kind of experiment: hERG channel inhibition assay (patch-clamp, CHO hERG cells). The format is cell-based. The settings on record: whole-cell patch-clamp; for IC20: human, CHO cells stably expressing hERG. The procedure:
hERG Channel Inhibition Assay
The hERG K^+ channels were cloned in humans and stably expressed in a CHO (Chinese hamster ovary) cell line. CHOhERG cells were used for patch-clamp (voltage-clamp, whole-cell) experiments. Cells were stimulated by a voltage pattern to activate hERG channels and conduct IKhERG currents (rapid delayed outward rectifier potassium current of the hERG channel). After the cells were stabilized for a few minutes, the amplitude and kinetics of IKhERG were recorded at a stimulation frequency of 0.1 Hz (6 bpm). Thereafter, the test compound was added to the preparation at increasing concentrations. For each concentration, an attempt was made to reach a steady-state effect, usually, this was achieved within 3-10 min at which time the next highest concentration was applied. The amplitude and kinetics of IKhERG are recorded in each concentration of the drug which were compared to the control values (taken as 100%). (references: Redfern W S, Carlsson L, Davis A S, Lynch W G, MacKenzie I, Palethorpe S, Siegl P K, Strang I, Sullivan A T, Wallis R, Camm A J, Hammond T G. 2003; Relationships between preclinical cardiac electrophysiology, clinical QT interval prolongation and torsade de pointes for a broad range of drugs: evidence for a provisional safety margin in drug development. Cardiovasc. Res. 58:32-45, Sanguinetti M C, Tristani-Firouzi M. 2006; hERG potassium channels and cardiac arrhythmia. Nature 440:463-469, Webster R, Leishman D, Walker D. 2002; Towards a drug concentration effect relationship for QT prolongation and torsades de pointes. Curr. Opin. Drug Discov. Devel. 5:116-26).

T1 sequence (Q12809 whole entry): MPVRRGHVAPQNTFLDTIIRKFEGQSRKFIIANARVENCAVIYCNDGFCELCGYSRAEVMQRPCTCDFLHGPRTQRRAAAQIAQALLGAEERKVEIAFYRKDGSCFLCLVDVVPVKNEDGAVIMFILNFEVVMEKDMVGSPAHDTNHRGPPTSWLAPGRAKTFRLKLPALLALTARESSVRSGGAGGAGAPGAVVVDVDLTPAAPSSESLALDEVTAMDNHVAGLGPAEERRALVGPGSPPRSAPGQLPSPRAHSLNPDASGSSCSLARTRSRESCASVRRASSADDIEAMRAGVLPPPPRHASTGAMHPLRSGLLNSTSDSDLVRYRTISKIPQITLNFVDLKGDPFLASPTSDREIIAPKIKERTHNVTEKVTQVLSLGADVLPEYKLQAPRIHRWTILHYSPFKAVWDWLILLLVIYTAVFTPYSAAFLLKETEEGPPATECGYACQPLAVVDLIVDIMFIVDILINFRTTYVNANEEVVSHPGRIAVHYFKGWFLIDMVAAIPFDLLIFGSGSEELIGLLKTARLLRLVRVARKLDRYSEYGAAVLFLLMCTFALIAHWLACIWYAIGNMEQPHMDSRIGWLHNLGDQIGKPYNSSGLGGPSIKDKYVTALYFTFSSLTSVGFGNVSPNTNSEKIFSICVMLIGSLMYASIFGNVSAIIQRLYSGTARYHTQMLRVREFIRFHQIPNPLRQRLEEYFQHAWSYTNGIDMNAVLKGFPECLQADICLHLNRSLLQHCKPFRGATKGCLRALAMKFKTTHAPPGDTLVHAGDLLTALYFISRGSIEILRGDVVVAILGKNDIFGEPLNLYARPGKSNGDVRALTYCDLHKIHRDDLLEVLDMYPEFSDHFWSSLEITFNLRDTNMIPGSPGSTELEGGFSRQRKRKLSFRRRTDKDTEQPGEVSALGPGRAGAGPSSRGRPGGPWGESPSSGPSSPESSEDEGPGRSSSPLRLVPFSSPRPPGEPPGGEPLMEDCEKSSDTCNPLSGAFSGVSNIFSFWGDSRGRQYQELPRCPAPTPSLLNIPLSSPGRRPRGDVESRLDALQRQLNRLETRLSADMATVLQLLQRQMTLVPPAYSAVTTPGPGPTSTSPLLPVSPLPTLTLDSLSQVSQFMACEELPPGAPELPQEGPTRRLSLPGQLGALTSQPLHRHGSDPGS

`C[C@@H]1CN(c2ccc(C#N)c3ncccc23)C[C@@H]2CCN(Cc3cnc4c(c3)CNCC4)CCN21` [Example 10, 5-[(4R,10aS)-4-methyl-8-(5,6,7,8-tetrahydro-1,6-naphthyridin-3-ylmethyl)-1,3,4,6,7,9,10,10a-octahydropyrazino[1,2-d][1,4]diazepin-2-yl]quinoline-8-carbonitrile]: the IC20 is > 10 µM and the concentration for half-maximal inhibition (IC50) was > 20 µM.

In the case of `C[C@@H]1CN(c2ccc(C#N)c3ncccc23)C[C@@H]2CCN(c3cc4c(cn3)CNCC4)CCN21` [Example 7, 5-[(4R,10aS)-4-methyl-8-(5,6,7,8-tetrahydro-2,7-naphthyridin-3-yl)-1,3,4,6,7,9,10,10a-octahydropyrazino[1,2-d][1,4]diazepin-2-yl]quinoline-8-carbonitrile], the IC20 was > 10 µM and the IC50 is > 20 µM.

Turning to `C[C@@H]1CN(c2ccc(C#N)c3ncccc23)C[C@@H]2CCN(Cc3cnc(N4CCNCC4)cn3)CCN21` [Example 15, 5-[(4R,10aS)-4-methyl-8-[(5-piperazin-1-ylpyrazin-2-yl)methyl]-1,3,4,6,7,9,10,10a-octahydropyrazino[1,2-d][1,4]diazepin-2-yl]quinoline-8-carbonitrile], the IC20 is > 10 µM and the IC50 is > 20 µM.
